Consider 14 compounds from ChEMBL document CHEMBL4680151, “Proton pump inhibitors selectively suppress MLL rearranged leukemia cells via disrupting MLL1-WDR5 protein-protein interaction” (Eur J Med Chem, 2020).

Active and inactive are the calls of the source. No cut-off for these calls is given here.

In data set [1] the test system is MV4-11. Briefly: Antiproliferative activity against human MV4-11 cells harboring MLL1-AF4. The format is functional.
Data set [2] relates to MOLM-13. In words: Antiproliferative activity against human MOLM-13 cells harboring MLL1-AF9. The format is functional.
Data set [3] has as its system K562. In words: Antiproliferative activity against human K562 cells harboring MLL1. The format is functional.
A short description of data set [4]: Cytotoxicity against human L02 cells. The format is cell-based.
The nature of data set [5]: Cytotoxicity against HUVEC cells. The format is cell-based. The note with it: human.
Data set [6] addresses Histone-lysine N-methyltransferase 2A/WDR5 (Homo sapiens, UniProt P61964). In words: Inhibition of MLL1-WDR5 interaction […] assessed as reduction in MLL1 binding to WDR5 WIN site by 5-FAM probe based fluorescence polarization assay. Background: Polarisation of emitted light reports the rotation of a fluorescent probe.
Data set [7] addresses T1, Histone-lysine N-methyltransferase 2A/WDR5 (Homo sapiens) (UniProt P61964+Q03164). Briefly: Inhibition of MLL1-WDR5 interaction in human MV4-11 cells assessed as downregulation of Hoxa9 gene expression at 5 uM incubated for 6 days by qRT-PCR analysis. The note with it: time 6.0 day. The format is cell-based.
Data set [8] has as its target T1, Histone-lysine N-methyltransferase 2A/WDR5 (Homo sapiens). In words: Inhibition of MLL1-WDR5 interaction in human MV4-11 cells assessed as downregulation of Meis1 gene expression at 5 uM incubated for 6 days by qRT-PCR analysis. The format is cell-based. Particulars: time 6.0 day.
Data set [9] has the same target. In words: Inhibition of MLL1-WDR5 interaction in human MV4-11 cells assessed as reduction in H3K4me1 expression at 5 uM incubated for 6 days by Western blot analysis. The format is cell-based. The note with it: time 6.0 day. (In western blotting, separated proteins are transferred to a membrane and probed.)
Data set [10] has the same target. Briefly: Inhibition of MLL1-WDR5 interaction in human MV4-11 cells assessed as reduction in H3K4me2 expression at 5 uM incubated for 6 days by Western blot analysis. The note with it: time 6.0 day. The format is cell-based.
For data set [11], the system named is MV4-11. Briefly: Induction of apoptosis in human MV4-11 cells harboring MLL1-AF4 assessed as viable cells at 5 uM incubated for 72 hrs by annexin V-FITC and propidium iodide staining based assay (reference value: 93.75 %). The format is functional. The note with it: read-out: Activity.
Data set [12] relates to MV4-11. In words: Induction of apoptosis in human MV4-11 cells harboring MLL1-AF4 assessed as early apoptotic cells at 5 uM incubated for 72 hrs by annexin V-FITC and propidium iodide staining based assay (reference value: 4.35 %). The format is functional.
In data set [13] the test system is MV4-11. In words: Induction of apoptosis in human MV4-11 cells harboring MLL1-AF4 assessed as late apoptotic cells at 5 uM incubated for 72 hrs by annexin V-FITC and propidium iodide staining based assay (reference value: 1.85 %). The format is functional.
For data set [14], the system named is MV4-11. In words: Induction of apoptosis in human MV4-11 cells harboring MLL1-AF4 assessed as necrotic cells at 5 uM incubated for 72 hrs by annexin V-FITC and propidium iodide staining based assay (reference value: 0.05 %). The format is functional.
Data set [15] relates to MV4-11. Briefly: Induction of apoptosis in human MV4-11 cells harboring MLL1-AF4 assessed as viable cells at 10 uM incubated for 72 hrs by annexin V-FITC and propidium iodide staining based assay (reference value: 93.75 %). The format is functional. The note with it: read-out: Activity.
In data set [16] the test system is MV4-11. In words: Induction of apoptosis in human MV4-11 cells harboring MLL1-AF4 assessed as early apoptotic cells at 10 uM incubated for 72 hrs by annexin V-FITC and propidium iodide staining based assay (reference value: 4.35 %). The format is functional.
Data set [17] concerns MV4-11. In words: Induction of apoptosis in human MV4-11 cells harboring MLL1-AF4 assessed as late apoptotic cells at 10 uM incubated for 72 hrs by annexin V-FITC and propidium iodide staining based assay (reference value: 1.85 %). The format is functional.
The subject of data set [18] is MV4-11. Briefly: Induction of apoptosis in human MV4-11 cells harboring MLL1-AF4 assessed as necrotic cells at 10 uM incubated for 72 hrs by annexin V-FITC and propidium iodide staining based assay (reference value: 0.05 %). The format is functional.
For data set [19], the system named is MV4-11. Briefly: Induction of apoptosis in human MV4-11 cells harboring MLL1-AF4 assessed as viable cells at 25 uM incubated for 72 hrs by annexin V-FITC and propidium iodide staining based assay (reference value: 93.75 %). The format is functional. The note with it: read-out: Activity.
For data set [20], the system named is MV4-11. In words: Induction of apoptosis in human MV4-11 cells harboring MLL1-AF4 assessed as early apoptotic cells at 25 uM incubated for 72 hrs by annexin V-FITC and propidium iodide staining based assay (reference value: 4.35 %). The format is functional.
Data set [21] relates to MV4-11. In words: Induction of apoptosis in human MV4-11 cells harboring MLL1-AF4 assessed as late apoptotic cells at 25 uM incubated for 72 hrs by annexin V-FITC and propidium iodide staining based assay (reference value: 1.85 %). The format is functional.
Data set [22] has as its system MV4-11. In words: Induction of apoptosis in human MV4-11 cells harboring MLL1-AF4 assessed as necrotic cells at 25 uM incubated for 72 hrs by annexin V-FITC and propidium iodide staining based assay (reference value: 0.05 %). The format is functional.
In data set [23] the test system is MV4-11. Briefly: Induction of apoptosis in human MV4-11 cells harboring MLL1-AF4 incubated for 72 hrs by annexin V-FITC and propidium iodide staining based assay. The format is functional, cell-based. Particulars: dose 5-25 µM.
Data set [24] addresses T1, Histone-lysine N-methyltransferase 2A/WDR5 (Homo sapiens). Briefly: Inhibition of MLL1-WDR5 interaction in human MV4-11 cells assessed as downregulation of Hoxa9 gene expression incubated for 6 days by qRT-PCR analysis. The format is cell-based. The note with it: dose 1-20 µM, time 6.0 day. (In general: Quantitative PCR measures a nucleic acid by following its amplification.)

Data set [25] has the same target. Briefly: Inhibition of MLL1-WDR5 interaction in human MV4-11 cells assessed as downregulation of Meis1 gene expression incubated for 6 days by qRT-PCR analysis. The format is cell-based. Particulars: dose 1-20 µM, time 6.0 day.
Data set [26] has the same target. In words: Inhibition of MLL1-WDR5 interaction in human MV4-11 cells assessed as reduction in H3K4me1 expression incubated for 6 days by Western blot analysis. The note with it: dose 0.1-20 µM, time 6.0 day. The format is cell-based.
For data set [27] the target is unchanged. Briefly: Inhibition of MLL1-WDR5 interaction in human MV4-11 cells assessed as reduction in H3K4me2 expression incubated for 6 days by Western blot analysis. The note with it: dose 0.1-20 µM, time 6.0 day. The format is cell-based.
The target is the same in data set [28]. Briefly: Inhibition of MLL1-WDR5 interaction in human MV4-11 cells assessed as downregulation of Hoxa9 gene expression at 10 uM incubated for 6 days by qRT-PCR analysis relative to control. The format is cell-based. The note with it: time 6.0 day.
Data set [29] has the same target. In words: Inhibition of MLL1-WDR5 interaction in human MV4-11 cells assessed as downregulation of Meis1 gene expression at 10 uM incubated for 6 days by qRT-PCR analysis relative to control. The format is cell-based. The note with it: time 6.0 day.

On to `COc1ccc2[nH]c([S+]([O-])Cc3ncc(C)c(OC)c3C)nc2c1` (stereo unspecified) [OMEPRAZOLE], for which the 50% growth inhibitory concentration (GI50) (commonly the concentration that inhibits growth by half) is 37.3 µM in [1]; 34.1 µM in data set [2]; over 100 µM in data set [3]; over 100 µM in data set [4]; over 100 µM in data set [5]. For the same compound, in data set [6], the IC50 (commonly the concentration needed to halve the response being measured) was determined as 1.7 µM.
`COc1ccc2nc([S@@+]([O-])Cc3ncc(C)c(OC)c3C)[nH]c2c1` [ESOMEPRAZOLE]: the GI50 in [1] is 47.6 µM; in data set [2], 32 µM; in [3], over 100 µM; in [4] it was over 100 µM; in data set [5], over 100 µM. For the same compound, the 50% inhibitory concentration (IC50) in data set [6] turned out to be 1.8 µM.
For the compound `COCCCOc1ccnc(C[S+]([O-])c2nc3cc(OC(F)F)ccc3[nH]2)c1C` (stereo unspecified), in data set [6], the IC50 was 1.7 µM.
In the case of `Cc1cccnc1C[S+]([O-])c1nc2ccccc2[nH]1` (stereo unspecified), in data set [6], the IC50 was over 100 µM.
The same measure, in the same setting: under `COc1c(C)cnc(C[S+]([O-])c2nc3ccccc3o2)c1C` (stereo unspecified) stands over 100 µM.
Take `Cc1c(OCC(F)(F)F)ccnc1C[S@@+]([O-])c1nc2ccccc2[nH]1` [DEXLANSOPRAZOLE]: the GI50 in data set [1] is 25.1 µM; in [2], 27.2 µM; in data set [3], over 100 µM; in [4], over 100 µM; in [5] it was over 100 µM. Further, in data set [6], the IC50 was determined as 5.7 µM.
Consider `Cc1ccccc1C[S+]([O-])c1nc2ccccc2[nH]1` (stereo unspecified), for which the 50% inhibitory concentration (IC50) in data set [6] was over 100 µM.
Regarding `COc1c(C)cnc(C[S+]([O-])c2nc3ccccc3s2)c1C` (stereo unspecified), the IC50 in data set [6] is over 100 µM.
Consider `COc1c(C)cnc(C[S+]([O-])c2nc3ccccc3[nH]2)c1C` (stereo unspecified), for which the IC50 in [6] was 1.1 µM.
As for `Cc1c(F)c(N)cc(C(=O)Nc2cc(-c3ccc(N)cc3)ccc2N2CCN(C)CC2)c1Cl`, the inhibition entry in [7], in [8], in data set [9] and in [10] was “Active” throughout.
For the compound `Cc1c(OCC(F)(F)F)ccnc1C[S+]([O-])c1nc2ccccc2[nH]1` (stereo unspecified) [LANSOPRAZOLE], the GI50 is 21.1 µM in data set [1]; 30.1 µM in data set [2]; over 100 µM in [3]; over 100 µM in data set [4]; over 100 µM in data set [5]. Moreover, the half-maximal inhibitory concentration (IC50) in data set [6] was found to be 5.9 µM.
`COCCCOc1ccnc(CS(=O)(=O)c2nc3cc(OC(F)F)ccc3[nH]2)c1`: the half-maximal inhibitory concentration (IC50) in [6] was over 100 µM.
Same read-out and setting: under `COc1c(C)cnc(CSc2nc3ccccc3[nH]2)c1C` stands over 100 µM.
As for `COCCCOc1ccnc(C[S+]([O-])c2nc3ccccc3[nH]2)c1C` (stereo unspecified) [RABEPRAZOLE], the GI50 in data set [1] is 14.1 µM; in data set [2], 17.5 µM; in data set [3], over 100 µM; in data set [4], over 100 µM; in [5], over 100 µM. The viability at 5 µM in data set [11] amounted to 86.4%. For the same compound, the Activity was 7.75% in [12]; 5.65% in data set [13]; 0.2% in data set [14]; 4.75% in [16]; 8.7% in data set [17]; 0.3% in data set [18]. The Activity in data set [20] was 6.4%; in [21], 16.5%; in [22] it was 0.8%; in [23], “Dose-dependent effect”. Also, in data set [15], the viability at 10 µM was found to be 86.2%. In data set [19], the viability at 25 µM came out at 76.3%. Also, the inhibition – broadly, how much of the control response was suppressed – was “Dose-dependent effect” in [24]; “Dose-dependent effect” in data set [25]; “Dose-dependent effect” in data set [26]; “Dose-dependent effect” in data set [27]; 50% in data set [28]; 50% in data set [29]. Further, the IC50 in data set [6] came out at 0.49 µM.
